Experimental findings from PubChem BioAssay AID1259411 (Chemical Carcinogenesis Research Information System (CCRIS), 2018) are described below.

Each structure is given as a SMILES string. Activity calls are given as the source filed them. The rule behind the calls is not given here.

This data set concerns rodent carcinogenicity bioassays, tumor incidence. Kind of data set: CCRIS carcinogenicity studies. An outline of the steps: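 NCI-built, expert-reviewed records of carcinogenicity and related test outcomes (mutagenicity, tumor promotion/inhibition) compiled from published and report sources, historical span 1985-2011, not updated.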

Take `Cc1ccccc1[N+](=O)[O-]`: the carcinogen call is, setting by setting: (Species: MOUSE, Strain/Sex: B6C3F1/FEMALE, Route: ORAL, Dose: 0, 1250, 2500, 5000 PPM IN DIET FOR 105 WK (STUDY DURATION: 105 WK), Dose: 0, 1250, 2500, 5000 PPM IN DIET FOR 105 WK (STUDY DURATION: 105 WK), Tumor Site: Type of Lesion: CIRCULATORY SYSTEM: HEMANGIOSARCOMA, LARGE INTESTINE (CECUM): CARCINOMA, LIVER: HEPATOCELLULAR ADENOMA, HEPATOCELLULAR C, Tumor Site: Type of Lesion: CIRCULATORY SYSTEM: HEMANGIOSARCOMA, LARGE INTESTINE (CECUM): CARCINOMA, LIVER: HEPATOCELLULAR ADENOMA, HEPATOCELLULAR C) “active; positive”; (Species: MOUSE, Strain/Sex: B6C3F1/MALE, Route: ORAL, Dose: 0, 1250, 2500, 5000 PPM IN DIET FOR 105 WK (STUDY DURATION: 105 WK), Dose: 0, 1250, 2500, 5000 PPM IN DIET FOR 105 WK (STUDY DURATION: 105 WK), Tumor Site: Type of Lesion: CIRCULATORY SYSTEM: HEMANGIOSARCOMA, LARGE INTESTINE (CECUM): CARCINOMA) “active; positive”; (Species: RAT, Strain/Sex: F344/FEMALE, Route: ORAL, Dose: 0, 625, 1250, 2000 PPM IN DIET FOR 105 WK (STUDY DURATION: 105 WK), Dose: 0, 625, 1250, 2000 PPM IN DIET FOR 105 WK (STUDY DURATION: 105 WK), Tumor Site: Type of Lesion: SKIN (SUBCUTANEOUS): FIBROMA, FIBROMA OR FIBROSARCOMA, MAMMARY GLAND: FIBROADENOMA: LIVER: HEPATOCELLULAR ADENOMA) “active; positive”; (Species: RAT, Strain/Sex: F344/MALE, Route: ORAL, Dose: 0, 625, 1250, 2000 PPM IN DIET FOR 105 WK (STUDY DURATION: 105 WK), Dose: 0, 625, 1250, 2000 PPM IN DIET FOR 105 WK (STUDY DURATION: 105 WK), Tumor Site: Type of Lesion: MESOTHELIUM: MALIGNANT MESOTHELIOMA, SKIN (SUBCUTANEOUS): LIPOMA, FIBROMA, FIBROSARCOMA, FIBROMA OR FIBROSARCOMA, MAMMAR, Tumor Site: Type of Lesion: MESOTHELIUM: MALIGNANT MESOTHELIOMA, SKIN (SUBCUTANEOUS): LIPOMA, FIBROMA, FIBROSARCOMA, FIBROMA OR FIBROSARCOMA, MAMMAR) “active; positive”; (Species: RAT, Strain/Sex: F344/MALE, Route: ORAL, Dose: 0, 2000, 5000 PPM IN DIET FOR FIRST 3 MO (STUDY DURATION: 105 WK), Dose: 0, 2000, 5000 PPM IN DIET FOR FIRST 3 MO (STUDY DURATION: 105 WK), Tumor Site: Type of Lesion: LIVER: HEPATOCELLULAR ADENOMA OR CARCINOMA, CHOLANGIOCARCINOMA: LUNG: ALVEOLAR/BRONCHIOLAR ADENOMA, ALVEOLAR/BRONCHIOLAR) “active; positive”.

Turning to `O=[N+]([O-])c1ccc(Cl)cc1`, the carcinogen call (Species: MOUSE, Strain/Sex: CD-1/MALE,FEMALE, Route: ORAL, Tumor Site: Type of Lesion: BLOOD VESSELS) is “active; positive”.

Regarding `ClC1(Cl)C2(Cl)C3(Cl)C4(Cl)C(Cl)(Cl)C5(Cl)C3(Cl)C1(Cl)C5(Cl)C24Cl` (configuration not stated), the carcinogen call (Species: MOUSE, Strain/Sex: B6AKF1/MALE,FEMALE, Route: GAVAGE/ORAL, Dose: 10 MG/KG FROM D 7- 28 OF LIFE THEN 26 PPM IN DIET, Tumor Site: Type of Lesion: LIVER: HEPATOMA) was “active; positive”; the carcinogen call (Species: MOUSE, Strain/Sex: B6C3F1/MALE,FEMALE, Route: GAVAGE/ORAL, Dose: 10 MG/KG FROM D 7- 28 OF LIFE THEN 26 PPM IN DIET, Tumor Site: Type of Lesion: LIVER: HEPATOMA) was “active; positive”; the carcinogen call (Species: RAT, Route: ORAL, Tumor Site: Type of Lesion: LIVER) is “active; positive”; the carcinogen call (Species: RAT, Strain/Sex: F344/FEMALE, Route: ORAL, Dose: 0, 0.1, 1, 10, 25, 50 PPM IN FEED FOR 104 WK (STUDY DURATION: 105 WK), Dose: 0, 0.1, 1, 10, 25, 50 PPM IN FEED FOR 104 WK (STUDY DURATION: 105 WK), Tumor Site: Type of Lesion: HEMATOPOIETIC SYSTEM: MONONUCLEAR CELL LEUKEMIA) was “active; positive”; the carcinogen call (Species: RAT, Strain/Sex: F344/FEMALE, Route: ORAL, Dose: 0, 50, 100 PPM IN FEED FOR 104 WK (STUDY DURATION: 106 WK), Dose: 0, 50, 100 PPM IN FEED FOR 104 WK (STUDY DURATION: 106 WK), Tumor Site: Type of Lesion: HEMATOPOIETIC SYSTEM: MONONUCLEAR CELL LEUKEMIA, LIVER: NEOPLASTIC NODULE, NEOPLASTIC NODULE OR HEPATOCELLULAR CARCINOMA) is “active; positive”; the carcinogen call (Species: RAT, Strain/Sex: F344/MALE, Route: ORAL, Dose: 0, 0.1, 1, 10, 25, 50 PPM IN FEED FOR 104 WK (STUDY DURATION: 105 WK), Dose: 0, 0.1, 1, 10, 25, 50 PPM IN FEED FOR 104 WK (STUDY DURATION: 105 WK), Tumor Site: Type of Lesion: LIVER: NEOPLASTIC NODULE, NEOPLASTIC NODULE OR HEPATOCELLULAR CARCINOMA, ADRENAL GLAND: PHEOCHROMOCYTOMA, PHEOCHROMOCYTO) is “active; positive”.

As for `CCC(=O)OCCCCCC(C)C`, the carcinogen call (Species: MOUSE, Strain/Sex: C3H/MALE, Route: DERMAL, Dose: 25 µL (19% W/V IN 70:30 ACETONE/HEPTANE APPLIED TO BACK 3 D/WK FOR LIFE (STUDY DURATION: LIFE)) was “inactive; negative”.

As to `C#C[C@]1(O)CC[C@H]2[C@@H]3CCc4cc(O)ccc4[C@H]3CC[C@@]21C`, the carcinogen call reads like this: (Species: MOUSE, Route: ORAL, Tumor Site: Type of Lesion: CERVIX, MAMMARY GLAND, PITUITARY GLAND, UTERUS, Tumor Site: Type of Lesion: CERVIX, MAMMARY GLAND, PITUITARY GLAND, UTERUS) “active; positive”; (Species: MOUSE, Strain/Sex: CD-1/FEMALE, Route: SUBCUTANEOUS, Dose: 0, 2 UG/D IN CORN OIL ON DAYS 1-5 OF LIFE (STUDY DURATION: 12-18 WK), Tumor Site: Type of Lesion: UTERUS: ADENOCARCINOMA) “active; positive”; (Species: RAT, Route: ORAL, SUBCUTANEOUS, Tumor Site: Type of Lesion: LIVER) “active; positive”; (Species: Rat, Strain/Sex: Sprague-Dawley/Female (50/Group), Route: Oral, Dose: 0, 2, 10, 50 ppb in diet, continuous exposure from conception through 2 yr, Dose: 0, 2, 10) “inactive; negative”; (Species: Rat, Strain/Sex: Sprague-Dawley/Female (50/Group), Route: Oral, Dose: 0, 2, 10, 50 ppb in diet, continuous exposure from conception through PND 140, followed by control diet to 2 yr, Dose: 0, 2, 10) “inactive; negative (authors describe as equivocal evidence based on stromal polyp (2/51, 5”; (Species: Rat, Strain/Sex: Sprague-Dawley/Male (50/Group), Route: Oral, Dose: 0, 2, 10, 50 ppb in diet, continuous exposure from conception through 2 yr, Dose: 0, 2, 10) “inactive; negative”. For the same compound, the carcinogen call (Species: Rat, Strain/Sex: Sprague-Dawley/Male (50/Group), Route: Oral, Dose: 0, 2, 10, 50 ppb in diet, continuous exposure from conception through PND 140, followed by control diet to 2 yr, Dose: 0, 2, 10) is “inactive; negative”.

Consider `Cc1ncc([N+](=O)[O-])n1CCO`, for which the carcinogen call is “active; positive” (Species: MOUSE, Route: ORAL, Tumor Site: Type of Lesion: LUNG, LYMPHATIC SYSTEM: LYMPHOMA (NOS)) and “active; positive” (Species: RAT, Route: ORAL, Tumor Site: Type of Lesion: MAMMARY GLAND).
